Assay results as given in US9714234B2, “Carbazole carboxamide compounds” (Bristol-Myers Squibb Company, priority 2013, dated 2017).

Assays:
[1] = test system: CD69 expression on B cells in human whole blood; assay: Whole Blood Assays of BCR-Stimulated CD69 Expression on B Cells; type: cell-based; conditions: anti-human IgM + IL-4 stimulation, 18 h at 37° C.
human recombinant Btk = human recombinant Btk (Homo sapiens (Human), UniProt Q06187); assay: Human Recombinant Btk Enzyme Assay; type: biochemical; conditions: human recombinant Btk 1 nM, ATP 20 μM
Jak2 tyrosine kinase = Jak2 tyrosine kinase (Homo sapiens (Human), UniProt O60674); assay: Jak2 Tyrosine Kinase Assay; type: biochemical; conditions: for IC50: Jak2 1 nM, ATP 30 μM; for Ratio of Jak2/Btk IC50 values: selectivity for Btk over Jak2, larger value = more selective for Btk
Chain of Jak2 tyrosine kinase (O60674 whole entry): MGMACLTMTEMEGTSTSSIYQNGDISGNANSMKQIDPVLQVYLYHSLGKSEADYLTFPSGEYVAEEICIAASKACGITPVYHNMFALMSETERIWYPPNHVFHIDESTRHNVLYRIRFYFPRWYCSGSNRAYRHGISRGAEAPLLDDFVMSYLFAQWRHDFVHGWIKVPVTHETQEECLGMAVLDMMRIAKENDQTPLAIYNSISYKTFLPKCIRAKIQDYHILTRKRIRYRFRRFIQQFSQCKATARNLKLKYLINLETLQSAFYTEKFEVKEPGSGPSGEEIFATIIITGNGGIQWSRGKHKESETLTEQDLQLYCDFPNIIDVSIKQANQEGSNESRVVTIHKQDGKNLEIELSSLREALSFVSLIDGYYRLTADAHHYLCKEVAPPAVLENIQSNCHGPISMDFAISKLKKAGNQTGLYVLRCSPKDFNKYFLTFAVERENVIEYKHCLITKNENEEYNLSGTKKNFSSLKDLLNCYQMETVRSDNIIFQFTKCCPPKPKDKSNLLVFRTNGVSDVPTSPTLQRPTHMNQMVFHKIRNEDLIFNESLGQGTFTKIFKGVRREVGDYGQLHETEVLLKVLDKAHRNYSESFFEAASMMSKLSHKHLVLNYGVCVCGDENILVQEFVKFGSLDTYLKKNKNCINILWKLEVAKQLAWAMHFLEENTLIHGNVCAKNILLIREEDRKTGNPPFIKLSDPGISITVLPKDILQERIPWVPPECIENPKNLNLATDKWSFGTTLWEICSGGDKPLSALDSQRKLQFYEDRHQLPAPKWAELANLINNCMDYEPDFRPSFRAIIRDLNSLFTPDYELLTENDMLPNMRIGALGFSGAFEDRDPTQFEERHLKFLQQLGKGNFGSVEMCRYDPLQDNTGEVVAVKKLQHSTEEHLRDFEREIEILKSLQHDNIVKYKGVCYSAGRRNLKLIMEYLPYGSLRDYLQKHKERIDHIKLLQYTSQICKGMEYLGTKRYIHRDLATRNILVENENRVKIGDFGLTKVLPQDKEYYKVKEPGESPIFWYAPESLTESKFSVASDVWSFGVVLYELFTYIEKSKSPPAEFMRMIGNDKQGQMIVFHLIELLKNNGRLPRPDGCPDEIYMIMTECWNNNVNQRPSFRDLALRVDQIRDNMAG

Chain of human recombinant Btk (Q06187 whole entry): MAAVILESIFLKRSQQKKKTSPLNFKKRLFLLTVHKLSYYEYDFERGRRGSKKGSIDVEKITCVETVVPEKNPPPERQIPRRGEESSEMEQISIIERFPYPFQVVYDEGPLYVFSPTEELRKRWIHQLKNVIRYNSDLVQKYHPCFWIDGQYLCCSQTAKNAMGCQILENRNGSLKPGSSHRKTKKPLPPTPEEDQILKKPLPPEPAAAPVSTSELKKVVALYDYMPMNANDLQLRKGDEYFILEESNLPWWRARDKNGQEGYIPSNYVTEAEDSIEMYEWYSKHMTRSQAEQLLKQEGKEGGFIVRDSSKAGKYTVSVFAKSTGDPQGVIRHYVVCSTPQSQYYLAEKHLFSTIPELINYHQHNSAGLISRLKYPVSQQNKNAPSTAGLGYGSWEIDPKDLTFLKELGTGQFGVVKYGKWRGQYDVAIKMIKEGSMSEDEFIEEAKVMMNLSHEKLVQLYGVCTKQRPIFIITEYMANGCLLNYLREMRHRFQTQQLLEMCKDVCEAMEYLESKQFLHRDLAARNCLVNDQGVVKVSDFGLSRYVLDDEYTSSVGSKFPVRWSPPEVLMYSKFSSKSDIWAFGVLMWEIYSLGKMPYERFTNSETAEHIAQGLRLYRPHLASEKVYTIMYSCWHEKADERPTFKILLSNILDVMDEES

Molecule	IC50 ([1]; B-cell) [nM]	IC50 (human recombinant Btk) [nM]	IC50 (Jak2 tyrosine kinase) [nM]	Ratio of Jak2/Btk IC50 values (Jak2 tyrosine kinase)	IC50 ([1]; Homo sapiens, B-cell, 18 h) [nM]	IC50 [1] [nM]
Cc1c(-c2ccc(C(N)=O)c3[nH]c4cc(C(C)(C)O)cc(C)c4c23)cccc1-n1c(=O)c2cccc(F)c2n(C)c1=O (single isomer, unassigned) [Example 25]	69	0.7	4600	6600	–	–
Cc1c(-c2ccc(C(N)=O)c3[nH]c4cc(C(C)(C)O)ccc4c23)cccc1-n1c(=O)[nH]c2c(F)cccc2c1=O (single isomer, unassigned) [Example 1, 4-(3-(8-Fluoro-2,4-dioxo-1,2-dihydroquinazolin-3(4H)-yl)-2-methylphenyl)-7-(2-hydroxypropan-2-yl)-9H-carbazole-1-carboxamide]	–	1.5	1200	800	140	–
Cc1c(-c2ccc(C(N)=O)c3[nH]c4cc(CO)ccc4c23)cccc1-n1c(=O)cc2c(F)cccn2c1=O [Example 28, 4-(3-(5-fluoro-1,3-dioxo-1H-pyrido[1,2-c]pyrimidin-2(3H)-yl)-2-methylphenyl)-7-(hydroxymethyl)-9H-carbazole-1-carboxamide]	87	1.5	800	530	–	–
Cc1c(-c2ccc(C(N)=O)c3[nH]c4cc(NC(=O)C(C)(C)C)ccc4c23)cccc1-n1c(=O)cc2c(Cl)cccn2c1=O [Example 16, 4-(3-(5-Chloro-1,3-dioxo-1H-pyrido[1,2-c]pyrimidin-2(3H)-yl)-2-methylphenyl)-7-pivalamido-9H-carbazole-1-carboxamide]	220	2.1	2200	1000	–	–
4-(3-(S)-(8-Fluoro-1-methyl-2,4-dioxo-1,2-dihydroquinazolin-3(4H)-yl)-2-methylphenyl)-7-(2-hydroxypropan-2-yl)-5-methyl-9H-carbazole-1-carboxamide [Example 24]	–	0.59	> 2000	>3400	–	160
Cc1c(-c2ccc(C(N)=O)c3[nH]c4cc(C(C)(C)O)ccc4c23)cccc1-n1c(=O)ccn(-c2ccc(F)cc2)c1=O [Example 9, 4-(3-(3-(4-Fluorophenyl)-2,6-dioxo-2,3-dihydropyrimidin-1(6H)-yl)-2-methylphenyl)-7-(2-hydroxypropan-2-yl)-9H-carbazole-1-carboxamide]	210	2.2	1000	450	–	–
Cn1c(=O)n(-c2cccc(-c3ccc(C(N)=O)c4[nH]c5cc(C(C)(C)O)ccc5c34)c2Cl)c(=O)c2ccccc21 [Example 6, 4-(2-Chloro-3-(1-methyl-2,4-dioxo-1,2-dihydroquinazolin-3(4H)-yl)phenyl)-7-(2-hydroxypropan-2-yl)-9H-carbazole-1-carboxamide]	150	5.3	1800	340	–	–
Cc1c(-c2ccc(C(N)=O)c3[nH]c4c(C)c(C(C)(C)O)ccc4c23)cccc1-n1c(=O)c2cccc(F)c2n(C)c1=O (atropisomer, axis not shown) [Example 26, 4-(3-(S)-(8-Fluoro-1-methyl-2,4-dioxo-1,2-dihydroquinazolin-3(4H)-yl)-2-methylphenyl)-7-(2-hydroxypropan-2-yl)-8-methyl-9H-carbazole-1-carboxamide]	200	0.84	> 2000	>2400	–	–
Cn1c(=O)n(-c2cccc(-c3ccc(C(N)=O)c4[nH]c5cc(C(C)(C)O)ccc5c34)c2Cl)c(=O)c2cccc(F)c21 [Example 5, 4-(2-Chloro-3-(8-fluoro-1-methyl-2,4-dioxo-1,2-dihydroquinazolin-3(4H)-yl)phenyl)-7-(2-hydroxypropan-2-yl)-9H-carbazole-1-carboxamide]	180	0.9	1200	1300	–	–
COc1cccn2c(=O)n(-c3cccc(-c4ccc(C(N)=O)c5[nH]c6cc(C(C)(C)O)ccc6c45)c3C)c(=O)cc12 [Example 12, 7-(2-Hydroxypropan-2-yl)-4-(3-(5-methoxy-1,3-dioxo-1H-pyrido[1,2-c]pyrimidin-2(3H)-yl)-2-methylphenyl)-9H-carbazole-1-carboxamide]	140	0.52	980	1900	–	–
COc1ccc2cc(=O)n(-c3cccc(-c4ccc(C(N)=O)c5[nH]c6cc(C(C)(C)O)ccc6c45)c3C)c(=O)n2c1 [Example 10, 7-(2-Hydroxypropan-2-yl)-4-(3-(7-methoxy-1,3-dioxo-1H-pyrido[1,2-c]pyrimidin-2(3H)-yl)-2-methylphenyl)-9H-carbazole-1-carboxamide]	120	1.4	1100	790	–	–
